Values joined by “and” are separate entries in the source; they are usually repeats but may differ in a detail not shown here. Equal entries are not always repeated. “Also recorded” adds a separate entry of the source. Where two headings read alike, the source gives them in different places.
Legend:
[1] = tested on: FMR1-217 RNA; assay: RT-qPCR of FMR1-217 and full-length FMR1 in fully methylated FXS1 LCL (GM07365) treated with 5-AzadC and/or ASOs; assay type: cell-based, human; settings: 5-AzadC (5-AzaC) 1 μM alone, 7 days, vs DMSO
Experimental: For each cell culture, 30×10^5 cells/mL were added in a final volume of 20 mL medium (RPMI 1640 medium (Sigma-Aldrich), supplemented with 15% FBS and 2.5% L-glutamine at 37° C. with 5% CO2) per T25 flask. 5-Aza-2′-deoxycytidine (5-AzaC) (Sigma-Aldrich, A3656) was added to the cell cultures (final concentration 1 μM) for 7 consecutive days. A 2 mM stock of 5-AzaC was made in DMSO. For each cell line, two independent treatments were performed (n=2). For the no treatment controls for each cell line, DMSO was added to the flasks. For samples with both 5-AzaC and ASO treatment, 80 nM ASOs or vehicle were added on Day 1 and either 5-AzaC or DMSO was added each day from Day 2 up to Day 9 at a final concentration of 1 μM. On Day 9 the cells were collected in 1×Phosphate buffered saline to proceed with RNA extraction or Western blotting.
(§1) One microgram (μg) of total RNA was primed with oligo(dT)20 to generate cDNA with a QuantiTect cDNA synthesis kit (Qiagen, #205311) using random hexamers (Table 3). qPCR was performed using the iTaq™ Universal SYBR® Green Supermix (BIO-RAD #1725122) on a QuantStudio 3 qPCR machine in duplicate.
(§2) Antisense oligonucleotides (ASOs) were dissolved in ultrapure distilled water to a final concentration of 10 μM. Before use, the ASOs were heated to 55° C. for 15 minutes and cooled at room temperature. ASOs were added, individually or in combinations, to LCL cell lines at a final concentration of 80 nM or 160 nM using Lipofectamine RNAIMAX® Transfection Reagent (Thermo Fisher Scientific, 13778030) and incubated at 37° C. with 5% CO2 for 16 hours in reduced serum medium. RPMI 1640 medium (Sigma-Aldrich), supplemented with 15% fetal bovine serum (FBS) was added for a total of 72 hours. The cells were collected after 72 hours of ASO treatment for RNA and protein extraction.
For each cell culture, 30×10^5 cells/mL were added to a final volume of 20 mL medium (RPMI 1640 medium (Sigma-Aldrich) supplemented with 15% fetal bovine serum (FBS) and 2.5% L-glutamine at 37° C. with 5% CO2) per T25 flask. 5-Aza-2′-deoxycytidine (5-AzadC) (Sigma-Aldrich, A3656) was added to the cell cultures (final concentration 1 μM) for 7 consecutive days. A 2 mM stock of 5-AzadC was made in DMSO. For each cell line, two independent treatments were performed (n=2). For the no treatment controls for each cell line, DMSO was added to the flasks. For samples with both 5-AzadC and ASO treatment, 80 nM or 160 nM ASOs or vehicle were added on Day 1 and either 5-AzadC or DMSO was added each day from Day 2 up to Day 9 at a final concentration of 1 μM. On Day 9 the cells were collected in 1× phosphate buffered saline to proceed with RNA extraction or Western blotting. […]

[2] = tested on: FMRP; assay: Western blot of FMRP relative to GAPDH in FXS1 LCL (GM07365); assay type: cell-based, human; settings: 5-AzadC 1 μM alone, 7 days
Experimental: For each cell culture, 30×10^5 cells/mL were added in a final volume of 20 mL medium (RPMI 1640 medium (Sigma-Aldrich), supplemented with 15% FBS and 2.5% L-glutamine at 37° C. with 5% CO2) per T25 flask. 5-Aza-2′-deoxycytidine (5-AzaC) (Sigma-Aldrich, A3656) was added to the cell cultures (final concentration 1 μM) for 7 consecutive days. A 2 mM stock of 5-AzaC was made in DMSO. For each cell line, two independent treatments were performed (n=2). For the no treatment controls for each cell line, DMSO was added to the flasks. […]
Cells were homogenized at 4° C. in RIPA buffer with incubation on ice for 10 minutes and dissociation by pipetting. […] Protein concentration was determined by BCA reagent. Proteins (10 μg) were diluted in SDS-bromophenol blue reducing buffer with 40 mM DTT and analyzed using western blotting on a 10% SDS-PAGE gel with the following antibodies: FMRP (Abcam, 1:2000) and GAPDH (Cell signaling, 1:2000) diluted in 1×TBST with 5% non-fat milk. […]
Cells were homogenized at 4° C. in RIPA buffer, with incubation on ice for 10 minutes and dissociation by pipetting. […] Protein concentration was determined using BCA reagent. […]
Cells were homogenized at 4° C. in radioimmunoprecipitation assay (RIPA) lysis buffer with incubation on ice for 10 minutes and dissociation by pipetting. […] Protein concentration was determined by BCA reagent.

[3] = tested on: FMR1-217 RNA; assay: RT-qPCR of FMR1-217 and full-length FMR1 in partially methylated FXS2 LCL (GM06897); assay type: cell-based, human; settings: 5-AzadC 1 μM, 7 days, vs DMSO
Experimental: as §1, §2
For each cell culture, 30×10^5 cells/mL were added to a final volume of 20 mL medium (RPMI 1640 medium (Sigma-Aldrich) supplemented with 15% fetal bovine serum (FBS) and 2.5% L-glutamine at 37° C. with 5% CO2) per T25 flask. 5-Aza-2′-deoxycytidine (5-AzadC) (Sigma-Aldrich, A3656) was added to the cell cultures (final concentration 1 μM) for 7 consecutive days. A 2 mM stock of 5-AzadC was made in DMSO. […]

[4] = tested on: FMRP; assay: Western blot of FMRP relative to GAPDH in FXS2 LCL (GM06897); assay type: cell-based, human; settings: 5-AzadC 1 μM, 7 days
Experimental: as §2, with “The cells were collected after 72 hours of ASO treatment for RNA and protein extraction.” left out
Cells were homogenized at 4° C. in RIPA buffer, with incubation on ice for 10 minutes and dissociation by pipetting. The extract was centrifuged at 13,200 rpm for 10 minutes at 4° C., and the supernatant collected. Protein concentration was determined using BCA reagent. Proteins (10 μg) were diluted in SDS-bromophenol blue reducing buffer with 40 mM DTT and analyzed using western blotting with the following antibodies: FMRP (Millipore, mAb2160, 1: 1,000), FMRP (Abcam, ab17722, 1:1,000) and GAPDH (14C10, Cell Signaling Technology, mAb 2118, 1:2,000), diluted in 1×TBST with 5% non-fat milk. […]
Cells were homogenized at 4° C. in radioimmunoprecipitation assay (RIPA) lysis buffer with incubation on ice for 10 minutes and dissociation by pipetting. […] Protein concentration was determined by BCA reagent. […]

[5] = tested on: FMRP; assay: Western blot of FMRP in FXS dermal fibroblasts (GM05131B); assay type: cell-based, human; settings: 5-AzadC alone
Experimental: Cells were homogenized at 4° C. in RIPA buffer, with incubation on ice for 10 minutes and dissociation by pipetting. The extract was centrifuged at 13,200 rpm for 10 minutes at 4° C., and the supernatant collected. Protein concentration was determined using BCA reagent. Proteins (10 μg) were diluted in SDS-bromophenol blue reducing buffer with 40 mM DTT and analyzed using western blotting with the following antibodies: FMRP (Millipore, mAb2160, 1: 1,000), FMRP (Abcam, ab17722, 1:1,000) and GAPDH (14C10, Cell Signaling Technology, mAb 2118, 1:2,000), diluted in 1×TBST with 5% non-fat milk. Membranes were washed three times for 10 minutes with 1×TBST and incubated with anti-rabbit or anti-mouse secondary antibodies (Jackson, 1:10,000) at room temperature for 1 hour. Membranes were washed three times for 10 minutes with 1×TBST, developed with ECL-Plus (Piece), and scanned with GE Amersham Imager.
Cells were homogenized at 4° C. in radioimmunoprecipitation assay (RIPA) lysis buffer with incubation on ice for 10 minutes and dissociation by pipetting. The extract was centrifuged at 13,200 rpm for 10 minutes at 4° C., and the supernatant was collected. Protein concentration was determined by BCA reagent.

[6] = tested on: FMR1-217 RNA; assay: RT-qPCR of FMR1-217 and FMR1 in FXS lung fibroblasts (GM07072) treated with 5-AzadC and ASOs 713/714; assay type: cell-based, human; settings: fully methylated FMR1, 5-AzadC in the absence of ASOs
Experimental: FIG. 15D Lung fibroblasts derived from a FXS individual (GM07072, Coriell Institute) were cultured with 5-AzadC for 8 days and then treated with ASOs 713/714 (100 nM each) for 72 hours prior to RNA and protein extraction. RT-qPCR analysis of FMR1-217, FMR1, and GAPDH RNAs in lung fibroblasts treated with DMSO, ASOs 713/714, 5-AzadC, or the ASOs 713/714 plus 5-AzadC. The amounts of FMR1-217 and FMR1 were made relative to GAPDH. (*p<0.05, **p<0.01, ***p<0.001, one way ANOVA with multiple comparisons test).
FIG. 21D Lung fibroblasts derived from an FXS individual (GM07072, Coriell Institute) were cultured with 5-AzadC for 8 days and then treated with ASOs 713/714 (100 nM each) for 72 hours prior to RNA and protein extraction. RT-qPCR analysis of FMR1-217, FMR1, and GAPDH RNAs in lung fibroblasts treated with DMSO, ASOs 713/714, 5-AzadC, or the ASOs 713/714 plus 5-AzadC. The amounts of FMR1-217 and FMR1 were made relative to GAPDH (*P<0.05, **P<0.01, ***P<0.001, one-way ANOVA with multiple comparisons test).

[7] = tested on: FMR1 transcripts (total, FMR1-205, FMR1-217); settings: FXS iPSC-derived NSCs, reanalyzed from RNA-seq data of Vershkov et al., cited from earlier work
[8] = tested on: FMR1 RNA; settings: FXS LCLs; 36 days of 5-AzadC; previous study; cited from earlier work

## Nc1ncn([C@H]2C[C@H](O)[C@@H](CO)O2)c(=O)n1 [5-AzadC, 5-Aza-2′-deoxycytidine]
[1]
  FMR1-217 (iso12) RNA level: synthesis of both FMR1 and FMR1-217 RNAs; also recorded: increased FMR1-217 RNA levels; also recorded: significant increases; also recorded: expected increase; also recorded: resulted in the expression of FMR1-217 and full-length FMR1
  full-length FMR1 (iso1) RNA level: synthesis of both FMR1 and FMR1-217 RNAs; also recorded: significant increases; also recorded: expected increase; also recorded: resulted in the expression of FMR1-217 and full-length FMR1
[1]; listed as 5-AzaC
  FMR1-217 (iso12) RNA level: increase in FMR1 iso12
  full-length FMR1 (iso1) RNA level: increase in FMR1 iso1
[2]
  FMRP level (western blot, relative to GAPDH): little or no FMRP; also recorded: increased FMR1-217 RNA levels but not FMRP; also recorded: In neither cell line did 5-AzadC treatment induce a significant increase in FMRP; also recorded: did not affect FMRP levels; also recorded: unaffected; also recorded: little FMRP; also recorded: modest increase; also recorded: modestly affected
[3]
  full-length FMR1 RNA level: increase of only full-length FMR1 RNA
[4]
  FMRP level (western blot, relative to GAPDH): In neither cell line did 5-AzadC treatment induce a significant increase in FMRP
[5]
  FMRP level (western blot): no effect
[6]
  FMR1-217 RNA level: increased
  FMR1 RNA level: increased
[7]; biologic duplicate
  FMR1 (total) reads: 9.9 TPM and 6.1 TPM
  FMR1-217 reads: 6.9 TPM and 3.9 TPM
[7]
  FMR1-217 RNA-seq reads (in words): clearly evident; also recorded: strong FMR1-217 expression; also recorded: reads corresponding to FMR1-217; also recorded: detected only in the 5-AzadC-treated samples
  total FMR1 and FMR1-205 expression (in words): strong total FMR1 and FMR1-205 expression; also recorded: expressed
[7]; listed as 5-azadC
  FMR1-217 RNA-seq reads (in words): detected only in the 5-azadC-treated samples
[8]
  FMRP level compared to that in TD cells: even lower level
  restoration of FMR1 RNA: up to 40%
